Holding throughout (test): NCI-60 cell line screen, 48 h
In assay [1] the test system is MOLT-4 leukemia.
Assay [2] has as its system LOX IMVI melanoma.
For assay [3], the system named is NCI-H522 lung.
Assay [4] relates to OVCAR-3 ovarian.
Assay [5] deals with RXF 393 renal.
In assay [6] the test system is SF-295 CNS.
In assay [7] the test system is A549 NSCLC.
For assay [8], the system named is MCF7 breast.
The test system of assay [9] is HL-60(TB) leukemia.
Assay [10] relates to NCI-H23 lung.

SMILES strings stand for the structures.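 In this assay, cells in 96-well plates receive the compound at five concentrations for 48 hours. Endpoints are linearly interpolated between the surrounding concentrations. GI50 is the concentration that inhibits growth by half. TGI marks complete inhibition of growth.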

`Oc1ccc(N=Nc2nccs2)c(O)c1`: the GI50 is 3.1 µM in assay [1]; 3.28 µM in assay [2]; 3.5 µM in assay [3]; 2.4 µM in [4]; 5.65 µM in assay [5]; 2.73 µM in assay [6]. Moreover, the GI50 in assay [7] was 5.11 µM; in [8], 3.06 µM; in assay [9] it was 3.41 µM; in assay [10] it was 5.36 µM. In addition, the TGI in assay [1] worked out at 20.3 µM; in assay [2], 18.7 µM; in assay [3], 13.6 µM; in assay [4], 7.37 µM; in assay [5], 30.1 µM; in assay [6], 15.1 µM. The TGI in [7] was 54.4 µM; in assay [8] it was 15.1 µM; in [9] it was over 100 µM; in assay [10], 28.7 µM.

As to `Oc1ccc(/C=C/c2cc(O)cc3c2C(c2cc(O)cc(O)c2)C(c2ccc(O)c(O)c2)O3)cc1` (stereo not given), the TGI was 33.5 µM in assay [1]; over 100 µM in assay [2]; 83 µM in [3]; 56.4 µM in assay [4]; over 100 µM in [5]; over 100 µM in assay [6]. For the same molecule, the TGI in assay [7] was over 100 µM; in [8], over 100 µM; in [9], 54.5 µM; in [10], 63.9 µM.

On to `CC(C)(C)c1cc(C(=O)/C=C/c2ccc(C(=O)O)cc2)cc(C(C)(C)C)c1`, for which the TGI in assay [1] is 8.31 µM; in assay [2], 8.54 µM; in assay [3], 15.4 µM; in assay [4], 7.31 µM; in [5], 4.34 µM; in [6] it was 7.29 µM. Also, the TGI in [7] is 13.4 µM; in assay [8], 14.8 µM; in assay [9], over 100 µM.

As to `CNCCn1c(=O)c2cc(OC)c(OC)cc2c2cnc3cc4c(cc3c21)OCO4`, the GI50 in [1] is under 0.01 µM; in assay [2], under 0.01 µM; in [3] it was under 0.01 µM; in assay [4], 0.0393 µM; in [5] it was under 0.01 µM; in assay [6], under 0.01 µM. In addition, the GI50 was under 0.01 µM in assay [7], under 0.01 µM in [8], under 0.01 µM in assay [9] and under 0.0112 µM in assay [10]. For the same molecule, the TGI is 0.0303 µM in [1]; 0.1 µM in [2]; 0.0261 µM in assay [3]; 2.02 µM in [4]; 0.0352 µM in assay [5]; under 0.0155 µM in [6]. For the same molecule, the TGI in [7] was 1.31 µM; in [8] it was 1.14 µM; in assay [9], 0.111 µM; in assay [10], 1.33 µM.

With `c1ccc2c(c1)c1ccccc1c1ccccc21`, the GI50 in [1] is 77.3 µM; in assay [2], over 100 µM; in [3] it was over 100 µM; in assay [4] it was over 100 µM; in [5], over 100 µM; in assay [7], over 100 µM. Further, the GI50 in [8], in assay [9] and in [10] was over 100 µM in each case. For the same molecule, the TGI in assay [1], in [2], in assay [3], in [4], in [5] and in [7] was over 100 µM each time. The TGI in assay [8], in assay [9] and in assay [10] was over 100 µM each time.

As to `Nc1c(C(=O)Nc2ccccc2Cl)sc2nc3c(cc12)C(=O)CCC3`, the GI50 in [1] is over 100 µM; in assay [2], 51.9 µM; in assay [3], 0.777 µM; in [4], 1.22 µM; in assay [5] it was 2.37 µM; in assay [6], 0.542 µM. Besides, the GI50 in [7] is 0.648 µM; in assay [8], 0.494 µM; in assay [9] it was 3.72 µM; in assay [10], 2.04 µM. For the same molecule, the TGI is over 100 µM in [1]; over 100 µM in [2]; over 100 µM in assay [3]; over 100 µM in assay [4]; over 28.7 µM in [5]; over 27.5 µM in [6]. Besides, the TGI in [7], in assay [8], in assay [9] and in assay [10] was over 100 µM throughout.

Consider `Clc1nc(Cl)c2ncn(Cc3ccccc3Cn3cnc4c(Cl)nc(Cl)nc43)c2n1`, for which the GI50 was 1.99 µM in [1]; 1.16 µM in assay [2]; 4.28 µM in [3]; 1.47 µM in assay [4]; 1.36 µM in [5]; 7.05 µM in assay [6]. The GI50 in [7] was 6.9 µM; in assay [8], 0.922 µM; in [9], 1.79 µM; in assay [10], 5.26 µM. Further, the TGI in assay [1] is 5.13 µM; in assay [2] it was 2.65 µM; in [3], 13.7 µM; in [4] it was 2.85 µM; in assay [5], 3.29 µM; in assay [6] it was 22.4 µM. Further, the TGI in [7] was found to be 21.4 µM; in [8] it was 4.99 µM; in [9], 9.14 µM; in assay [10] it was 10.7 µM.

As to `O=C1c2ccccc2C(=O)c2c(NCCN=Cc3ccccc3O)cccc21`, the GI50 in [1] is 3.33 µM; in [2], 3.89 µM; in [3], 6.94 µM; in assay [4], 2.38 µM; in [5], 2.18 µM; in assay [6], 2.43 µM. Besides, the GI50 is 4.69 µM in assay [7], 1.57 µM in assay [8], 0.235 µM in assay [9] and 12.4 µM in assay [10]. Moreover, the TGI was over 30.5 µM in assay [1]; 9.63 µM in [2]; over 25.6 µM in assay [3]; 7.92 µM in assay [4]; 6.94 µM in [5]; 5.01 µM in [6]. In addition, the TGI is 14.4 µM in assay [7], 5.27 µM in [8], 3.89 µM in assay [9] and over 100 µM in [10].

Turning to `c1ccc(NCCSc2nc3ccccc3s2)cc1`, the TGI in [1] is 82.4 µM; in assay [2], over 100 µM; in assay [3], over 100 µM; in [4], over 100 µM; in assay [5] it was over 100 µM; in assay [6], over 100 µM. In addition, the TGI in [7], in [8], in assay [9] and in [10] was over 100 µM each time.

Consider `COc1ccc(-c2nn(-c3cccc(Cl)c3)cc2-c2nc(N)[nH]c(=O)c2C#N)cc1`, for which the GI50 in assay [1] was 4.8 µM; in assay [2] it was 4.02 µM; in [3], 3.11 µM; in assay [4], 3.38 µM; in [5] it was 4.51 µM; in [6], 2.36 µM. Further, the GI50 was 5.13 µM in [7], 3.54 µM in assay [8], 3.96 µM in assay [9] and 5.44 µM in [10]. Moreover, the TGI in [1] was found to be 39.8 µM; in [2], 20.1 µM; in [3], 9.8 µM; in assay [4], 10 µM; in [5] it was 22.4 µM; in assay [6], 9.23 µM. Moreover, the TGI in [7] is 50.8 µM; in assay [8], 28.5 µM; in [9], 14.2 µM; in [10] it was 46.2 µM.

Consider `COc1ccc(-c2cc(Nc3ccnc(N4CCOCC4)n3)on2)cc1`, for which the GI50 in assay [1] is 0.766 µM; in [2], 0.353 µM; in assay [3], 0.0815 µM; in assay [4], 0.0728 µM; in [5] it was 0.16 µM; in assay [6] it was 0.171 µM. Also, the GI50 in [7] is 0.224 µM; in assay [8] it was 0.258 µM; in assay [9], 0.2 µM; in assay [10], 0.516 µM. For the same molecule, the TGI in assay [1] was found to be 25.5 µM; in [2], 15.3 µM; in [3], 3.12 µM; in assay [4] it was 2.66 µM; in assay [5] it was 0.564 µM; in [6], 5.95 µM. Also, the TGI in [7] stood at 12.1 µM; in assay [8] it was 12.3 µM; in [9] it was 1.88 µM; in assay [10] it was 29.1 µM.

As for `COc1cc(/C=C2\CCC/C(=C\c3ccc(OCC4CO4)c(OC)c3)C2=O)ccc1OCC1CO1` (stereo not given), the GI50 is 2.91 µM in [1]; 1.23 µM in [2]; 2.47 µM in assay [3]; 2.44 µM in assay [4]; 1.6 µM in assay [5]; 4.35 µM in assay [6]. For the same molecule, the GI50 is 2.14 µM in assay [7], 2.02 µM in assay [8], 3.59 µM in assay [9] and 2.8 µM in assay [10]. The TGI came to 34.1 µM in assay [1]; 3.78 µM in [2]; 6 µM in assay [3]; 6.23 µM in [4]; 3.05 µM in [5]; 84.4 µM in assay [6]. For the same molecule, the TGI in assay [7] is 5.09 µM; in assay [8] it was 7.32 µM; in [9] it was over 100 µM; in assay [10] it was 9.71 µM.

`Cn1cc(S(=O)(=O)N2CCC3=Cc4c(cnn4-c4ccc(F)cc4)C[C@]3(C(=O)c3cc(C(F)(F)F)ccn3)C2)cn1`: the GI50 in assay [1] is over 100 µM; in assay [2], over 100 µM; in assay [3], over 100 µM; in assay [4], over 100 µM; in assay [5], 5.19 µM; in [6] it was over 100 µM. Further, the GI50 is 39.7 µM in assay [7], 6.34 µM in assay [8], over 100 µM in assay [9] and over 100 µM in assay [10]. Further, the TGI in assay [1], in [2], in assay [3], in assay [4], in assay [5] and in assay [6] was over 100 µM each time. The TGI in assay [7], in assay [8], in assay [9] and in assay [10] was over 100 µM in each case.

With `CCOC(=O)C1=C(N)Oc2c(sc3c(C)cccc23)C1c1ccc(F)cc1` (stereo not given), the GI50 was 1.88 µM in assay [1]; 0.596 µM in [2]; 0.35 µM in assay [3]; 0.403 µM in assay [4]; 0.242 µM in assay [5]; 0.297 µM in assay [6]. Further, the GI50 in assay [7] was 0.804 µM; in assay [8], 0.47 µM; in [9] it was 0.374 µM; in [10], 0.808 µM. Also, the TGI in [1] was determined as 17.5 µM; in assay [2], 12.3 µM; in [3], 3.29 µM; in assay [4], 13.1 µM; in [5] it was 0.639 µM; in assay [6], 2.41 µM. Also, the TGI turned out to be 17.2 µM in [7], 11.4 µM in [8], 4.62 µM in [9] and 14.3 µM in assay [10].

On to `NCCCOc1cc(Cl)ccc1NC(=O)c1cc2ccccc2cc1OCCCN`, for which the GI50 is 1.51 µM in assay [1]; 1.2 µM in assay [2]; 0.575 µM in [3]; 1.32 µM in [4]; 1.24 µM in assay [5]; 1.66 µM in [6]. The GI50 in assay [7] is 1.54 µM; in assay [8], 1.62 µM; in [9], 0.665 µM; in [10], 1.51 µM. Also, the TGI in assay [1] worked out at 3.25 µM; in [2], 2.59 µM; in assay [3], 2.34 µM; in assay [4], 2.65 µM; in assay [5] it was 2.54 µM; in assay [6], 3.42 µM. Also, the TGI was 3.06 µM in assay [7], 3.07 µM in [8], 2.39 µM in [9] and 3.03 µM in [10].

As to `NCCCOc1cc2ccccc2cc1C(=O)NCCCOc1cc2ccccc2cc1C(=O)Nc1ccc(Cl)cc1O`, the GI50 in assay [1] was 0.314 µM; in assay [2] it was 0.436 µM; in assay [3], 0.929 µM; in [4], 1.81 µM; in [5] it was 0.24 µM; in assay [7] it was 0.198 µM. Besides, the values for the GI50 in assay [8], in [9] and in [10] were 0.183 µM, 0.512 µM and 0.598 µM, respectively. The TGI in assay [1] worked out at 1.54 µM; in assay [2], 1.78 µM; in assay [3] it was 2.89 µM; in assay [4] it was 3.49 µM; in assay [5], 0.928 µM; in assay [7] it was 0.383 µM. Moreover, the TGI was determined as 0.349 µM in [8], 2.2 µM in [9] and 2.3 µM in assay [10].

For the origin of these results see PubChem BioAssay (NCI).
